Experimental data from patent US4201784A, “Substituted 2-[2'-(5"-nitrofuryl-2")vinyl-and 4'-(5"-nitrofuryl-2"-1,3-butadieryl]quinoline-4-carboxylic acid amides and salts thereof” (Institut Organicheskogo Sinteza Akademii Nauk Latviiskoi SSR, priority 1977, dated 1980).
Where two headings read alike, the source gives them in different places.

Columns and labels:
[1] = Biological availability, blood and liver of rats; format: in vivo; settings: intraperitoneal 100 mg/kg
Experimental: (§1) The biological availability of giniquine was studied on common white male rats with a mass of 150-200 g and common white male mice with a mass of 25-30 g. The test began seven days after Ehrlich ascitic carcinoma was inoculated to the animals.
(§2) Giniquine was injected intraperitoneally in 100 mg/kg doses, using distilled water as a solvent. The animals were slaughtered at preset time intervals (5,15,30 and 60 minutes) and a biological material (blood and liver for rats and ascites for mice) was taken for analysis. To separate ascitic fluid from the tumor cells, ascites was centrifuged at 2000 r.p.m. for 10 minutes. The precipitate was washed with a mixture of physiological solution and heparin and was again centrifuged under the same conditions, 20% homogenates in distilled water were prepared from ascitic cells.
(§3) Giniquine was extracted from the biological material with chloroform.
(§4) The extraction procedure comprised the following stages: 0.1 ml of ethyl alcohol were added to 1 ml of tested sample and the solution was thoroughly mixed with 0.5 ml of a saturated potassium carbonate solution, then 4 ml of chloroform was added. Closed test tubes were vigorously shaken on a rocker for one hour. After the shaking, the samples were centrifuged at 5000 r.p.m. for ten minutes. The chloroform layer was used for analysis. Daylight was avoided.
(§5) Concentration of the preparation in biological samples was determined by spectrophotometry at 400 nm using molar absorption factor (ε0.10^-3 =36.04).
(§6) The results were expressed in μg/ml of sample. Minimum sensitivity of the method was 1.1 μg/ml.

[2] = Biological availability, ascites of mice with Ehrlich ascitic carcinoma; format: in vivo
Experimental: as §1, §2, §3, §4, §5, §6

wound healing processes = test: Influence on wound healing processes
acatol-1 = test: Antitumor activity, large intestine adenocarcinoma acatol-1; format: in vivo, mice
Experimental: Apart from the tests on Ehrlich ascitic tumor, giniquine was studied on twelve more inoculated tumors. Seven tumors (melanoma B16, sarcoma AK, large intestine carcinoma acatol-1, sarcoma 180, adenocarcinoma 755, Lewis lung carcinoma and sarcoma 37) were inoculated subcutaneously with 50 mg of tumoral cells per mouse. Four tumors (lymphatic leukemies L 5178, L 5178Y, L 1210 and P-388) were inoculated intraperitoneally with 10^6 cells per mouse. One tumor (La, hemocytoblastosis) was inoculated intraperitoneally by injecting 50 mg of cell suspension of spleen and liver of mice suffering La hemocytoblastosis, per mouse. Giniquine was injected intraperitoneally five times for seven days: 1,2,3,4,7 days or 3,4,5,6,7 days after the implantation of tumor. The rate of deceleration of the tumor growth was established 14 days after the ultimate injection of giniquine; life of test animals was recorded for 60 days.

[3] = BALB/c female mice, intraperitoneal, days 3,4,5,6,7, optim. daily dose 10.0 mg/kg

SMILES: CCN(CC)CCCC(C)NC(=O)c1cc(C=Cc2ccc([N+](=O)[O-])o2)nc2ccccc12 (stereo not drawn) [giniquine, 2-[2'-(5"-nitrofuryl-2")vinyl]quinoline-4-carboxylic acid (α-methyl-δ-diethylaminobutyl)amide triphosphate]
- time of detection in blood ([1]; blood): as early as in five minutes
- Cmax at 0.5 h ([1]; rat, blood, ip, 30 minutes, read-out: maximum level in blood): 23000 ng/mL
- Tmax ([1]; rat, ip, blood, read-out: time of maximum level in blood (converted)): 30 min
- Cmax ([1]; rat, ip, liver, read-out: maximum concentration in liver): 28000 ng/mL
- Tmax ([1]; rat, ip, liver, read-out: time of maximum concentration in liver (converted)): 20 min
- concentration at 1 h ([1]; rat, serum, ip, 60 minutes, read-out: content in blood serum): 3000 ng/mL
- concentration in tumoral cells versus ascitic fluid (in words) ([2]; 60 minutes): also greater than that in ascitic fluid
- time of maximum concentration in ascitic cells ([2]; intraperitoneal 100 mg/kg): five minutes
- concentration in ascitic cells versus ascitic fluid ([2]; intraperitoneal 100 mg/kg, five minutes): four times greater
- accumulation (in words) ([2]; intraperitoneal injection): mainly accumulates in ascitic cells
- Cmax at 5 min ([2]; mouse, ascitic cells, ip, intraperitoneal 100 mg/kg, five minutes, read-out: maximum concentration in ascitic cells): 40000 ng/mL
- concentration at 5 min ([2]; mouse, ascitic fluid, ip, intraperitoneal 100 mg/kg, five minutes): 10000 ng/mL
- inhibiting influence on wound healing processes (wound healing processes): absence of an inhibiting influences on wound healing processes
- Deceleration of tumor growth (acatol-1; [3]): 38%
- Max. prolongation of life (acatol-1; [3]): 25%
- antitumor effect / sensitivity (in words) (acatol-1; acatol-1): slight antitumor effect
